Data on 14 molecules can be found in PubChem BioAssay (NCI).

Common to all, as to test: DTP human tumour cell line panel, 48 h
In assay [1] the test system is SN12C renal.
Assay [2] deals with SF-268 CNS.
Assay [3] has as its system HL-60(TB) leukemia.
The subject of assay [4] is IGROV1 ovarian.
Assay [5] relates to A498 renal.
Assay [6] relates to NCI/ADR-RES ovarian.
Assay [7] concerns CAKI-1 renal.
In assay [8] the test system is OVCAR-4 ovarian.
Assay [9] has as its system OVCAR-5 ovarian.

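Following 48 hours of exposure in 96-well plates, responses at five concentrations were used to interpolate endpoints linearly. Here, GI50 denotes the concentration required for 50% inhibition of growth. TGI: concentration producing complete growth inhibition.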

A word on the TGI: it is the concentration giving total growth inhibition. A higher TGI goes with less potent growth arrest. The term GI50 denotes the concentration giving 50% growth inhibition.

On to `OB1OCc2ccccc21`, for which the TGI is over 100 µM in assay [1]; over 100 µM in assay [2]; over 100 µM in [3]; over 100 µM in [4]; over 100 µM in assay [5]; 57.9 µM in assay [6]. The TGI in [7] is over 100 µM; in assay [8], 92.8 µM.

As for `C[N+](C)(C)CC(=O)N/N=C(\C(=O)Nc1ccc(Cl)cc1)C1C(=O)N(c2ccccc2)N=C1N` (stereo unspecified), the TGI in [9], in assay [1], in assay [2], in [3], in [4] and in [5] was over 100 µM throughout. The TGI in assay [7] and in assay [8] was over 100 µM each time.

In the case of `O=C(C(Cl)=C(Nc1ccccc1)Nc1ccccc1)C(Cl)Cl`, the TGI is 79.7 µM in [1]; 76.7 µM in [2]; 51.9 µM in assay [3]; over 100 µM in assay [4]; 74.5 µM in assay [5]; over 100 µM in assay [6]. Moreover, the TGI was 45 µM in assay [7] and over 100 µM in [8].

On to `CC(=O)NC(Cc1ccccc1)C(=S)N1CCCC1` (stereo unspecified), for which the TGI in [9], in assay [1], in [2], in assay [3], in assay [4] and in assay [5] was over 100 µM each time. For the same molecule, the TGI in assay [7] and in assay [8] was over 100 µM each time.

With `Nc1nc(NC(=O)C2=NS(=O)(=O)c3cc(S(N)(=O)=O)c(Cl)cc3N2)n[nH]1`, the TGI in assay [9], in assay [1], in assay [2], in [4], in assay [5] and in [7] was over 100 µM throughout. Also, the TGI in [8] is over 100 µM.

For `CC1=C2CC3=C(C)C(=O)O[C@H]3C[C@@H](C)[C@@H]2CC1`, the TGI in [9], in assay [2], in assay [3], in assay [4], in assay [5] and in [6] was over 100 µM each time. For the same molecule, the total growth inhibition concentration (TGI) in [7] and in assay [8] was over 100 µM throughout.

For `O=C(CSCC(=O)N/N=C\c1cc(Br)cc(Br)c1O)N/N=C\c1cc(Br)cc(Br)c1O`, the TGI in assay [9] was over 100 µM; in assay [1], over 100 µM; in assay [2], 58.2 µM; in assay [4], 66.2 µM; in [6], over 100 µM; in assay [7], 73 µM. In assay [8], this molecule showed a TGI of over 100 µM.

As to `COc1cc(/C=C/C(=O)C(C)(C)C)cc(OC)c1OC`, the TGI is over 100 µM in assay [9]; over 100 µM in [1]; over 100 µM in [2]; 53 µM in [3]; over 100 µM in assay [7]; over 100 µM in assay [8].

For `CC(C)CCC[C@@H](C)[C@H]1CC[C@H]2[C@@H]3CC=C4CC(OCCCCN(O)CCCSC5OC(CO)C(O)C(O)C5O)CC[C@]4(C)[C@H]3CC[C@]12C` (stereo partly specified), the TGI was over 100 µM in assay [9]; over 100 µM in assay [1]; over 100 µM in assay [2]; over 100 µM in assay [3]; 50 µM in assay [4]; over 100 µM in assay [5]. Besides, the TGI in [7] and in [8] was over 100 µM each time.

For `O=C(CCc1nnc2s/c(=C\c3ccc(Cl)cc3Cl)c(=O)n12)Nc1cc(Cl)c(Cl)cc1Cl`, the GI50 in assay [9], in [1], in assay [2], in assay [4], in assay [5] and in assay [7] was over 100 µM in each case. In addition, the GI50 in assay [8] is over 100 µM. For the same molecule, the TGI in assay [9], in [1], in assay [2], in assay [3], in assay [4] and in [5] was over 100 µM each time. Also, the TGI in [7] and in assay [8] was over 100 µM in each case.

With `COc1cc2c(oc(=O)c3c4oc([Si](C)(C)C)cc4cc(OC)c23)c2cccc(O)c12`, the TGI in assay [9], in [1], in assay [2], in assay [3], in assay [4] and in assay [5] was over 100 µM in each case. The TGI in assay [7] and in [8] was over 100 µM in each case.

As to `O=C(N/N=C/c1cc(-c2ccccc2Cl)c(-c2ccccc2Cl)o1)c1ccncc1`, the TGI in assay [9], in [1], in assay [2], in assay [3], in [4] and in assay [5] was over 100 µM each time. Further, the TGI in [7] and in [8] was over 100 µM in each case.

In the case of `Clc1ccc(CCn2ccc3ccccc32)c(Cl)c1`, the TGI in assay [9], in [1], in [2], in assay [3], in assay [4] and in assay [5] was over 100 µM each time. Moreover, the TGI in assay [6], in assay [7] and in [8] was over 100 µM each time.

Take `CN(C)CCCn1c2c(c3ccncc3c1=O)C(=O)c1ccccc1-2`: the GI50 in [9] was 1.82 µM; in assay [1], 0.958 µM; in assay [2], 1.47 µM; in [3], 0.858 µM; in assay [4], 0.955 µM; in assay [5], 2.15 µM. In addition, the GI50 in [6] is 0.803 µM; in assay [7] it was 0.572 µM; in [8], 1.37 µM. Moreover, the TGI in assay [9] is 9.25 µM; in assay [1] it was 19.1 µM; in assay [2] it was 10.7 µM; in assay [3], 8.66 µM; in assay [4], over 100 µM; in assay [5], 20 µM. The TGI in assay [6] came out at 11.6 µM; in assay [7], 5.53 µM; in assay [8], 8.67 µM.
